Tested on: Soybean seeds, cv. Viking
Experiment: Soybean seed treatment, root nodulation by Bradyrhizobium japonicum (Example 19)
Format: in vivo
Details: seed treatment 0.1 mM; greenhouse 75° F; 4 weeks after planting; untreated 655.8 mg
Experimental: Soybean seed were treated with 6-oxo-1,4,5,6 tetrahydropyridazine-3-carboxylic acid to examine the effect on root nodulation by a nitrogen fixing bacterium.
Soybean seeds, cv. Viking, were treated with 6-oxo-1,4,5,6 tetrahydropyridazine-3-carboxylic acid (0.1 mM) and the resulting seedlings were grown in a greenhouse at 75° F. under natural light during a winter season. The extent of root nodulation by Bradyrhizobium japonicum, a nitrogen fixing bacterium was determined 4 weeks after planting. Plants from the untreated seeds averaged 655.8 mg of nodules per plant versus 763.7 mg for the plants from treated seeds.

Q: `O=C1CCC(C(=O)O)=NN1` [THP, 6-oxo-1,4,5,6 tetrahydropyridazine-3-carboxylic acid] was tested. Which nodules per plant did it give?
A: 763.7 mg

From patent publication US11800869B2, “Use of 6-oxo-1,4,5,6-tetrahydropyridazine-3-carboxylic acid, 1-methyl 6-oxo-1,4,5,6-tetrahydropyridazine-3-carboxylic acid and 1-alkyl-6-oxo-1,4,5,6-tetrahydropyridazine-3-carboxylic acid for improving growth performance in plants” (Advanced Crop Chem LLP, priority 2020, dated 2023)
